Source: patent publication US12139487B2, “Compounds and uses thereof” (Foghorn Therapeutics Inc., priority 2022, dated 2024)

Experiments:
BRG-1 = target: T1, BRG-1 (Homo sapiens, UniProt P51532); test: ATPase catalytic activity assay (ADP-Glo), BRG-1; format: biochemical; conditions: Table 10, read-out: BRG1 IC50
T1 construct: made in house; host or cells: High Five insect cells
Description: The ATPase catalytic activity of BRM or BRG-1 was measured by an in vitro biochemical assay using ADP-Glo™ (Promega, V9102). The ADP-Glo™ kinase assay is performed in two steps once the reaction is complete. The first step is to deplete any unconsumed ATP in the reaction. The second step is to convert the reaction product ADP to ATP, which will be utilized by the luciferase to generate luminesce and be detected by a luminescence reader, such as Envision.
Then, following addition of 5 μL of ADP-Glo™ Reagent provided in the kit, the reaction incubates at room temperature for 40 minutes. Then, 10 μL of Kinase Detection Reagent provided in the kit is added to convert ADP to ATP, and the reaction incubates at room temperature for 60 minutes. Finally, luminescence measurement is collected with a plate-reading luminometer, such as Envision.

BRM = target: T2, BRM (Homo sapiens, UniProt P51531); test: ATPase catalytic activity assay (ADP-Glo), BRM; format: biochemical; conditions: Table 10; for Ratio (BRG1 IC50 (μM) divided by BRM IC50 (μM)): ATPase assay, selectivity BRG1/BRM; for IC50: ATPase catalytic activity assay (ADP-Glo)
T2 construct: made in house; host or cells: High Five insect cells
Summary of the method: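 Reaction holds 30 nM BRM, 20 nM salmon sperm DNA and 400 μM ATP in 20 mM Tris pH 8, 20 mM MgCl2, 50 mM NaCl, 0.1% Tween-20, 1 mM DTT. Incubated 1 h at room temperature. ADP formed is detected by ADP-Glo luminescence.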

T1 sequence (P51532 whole entry): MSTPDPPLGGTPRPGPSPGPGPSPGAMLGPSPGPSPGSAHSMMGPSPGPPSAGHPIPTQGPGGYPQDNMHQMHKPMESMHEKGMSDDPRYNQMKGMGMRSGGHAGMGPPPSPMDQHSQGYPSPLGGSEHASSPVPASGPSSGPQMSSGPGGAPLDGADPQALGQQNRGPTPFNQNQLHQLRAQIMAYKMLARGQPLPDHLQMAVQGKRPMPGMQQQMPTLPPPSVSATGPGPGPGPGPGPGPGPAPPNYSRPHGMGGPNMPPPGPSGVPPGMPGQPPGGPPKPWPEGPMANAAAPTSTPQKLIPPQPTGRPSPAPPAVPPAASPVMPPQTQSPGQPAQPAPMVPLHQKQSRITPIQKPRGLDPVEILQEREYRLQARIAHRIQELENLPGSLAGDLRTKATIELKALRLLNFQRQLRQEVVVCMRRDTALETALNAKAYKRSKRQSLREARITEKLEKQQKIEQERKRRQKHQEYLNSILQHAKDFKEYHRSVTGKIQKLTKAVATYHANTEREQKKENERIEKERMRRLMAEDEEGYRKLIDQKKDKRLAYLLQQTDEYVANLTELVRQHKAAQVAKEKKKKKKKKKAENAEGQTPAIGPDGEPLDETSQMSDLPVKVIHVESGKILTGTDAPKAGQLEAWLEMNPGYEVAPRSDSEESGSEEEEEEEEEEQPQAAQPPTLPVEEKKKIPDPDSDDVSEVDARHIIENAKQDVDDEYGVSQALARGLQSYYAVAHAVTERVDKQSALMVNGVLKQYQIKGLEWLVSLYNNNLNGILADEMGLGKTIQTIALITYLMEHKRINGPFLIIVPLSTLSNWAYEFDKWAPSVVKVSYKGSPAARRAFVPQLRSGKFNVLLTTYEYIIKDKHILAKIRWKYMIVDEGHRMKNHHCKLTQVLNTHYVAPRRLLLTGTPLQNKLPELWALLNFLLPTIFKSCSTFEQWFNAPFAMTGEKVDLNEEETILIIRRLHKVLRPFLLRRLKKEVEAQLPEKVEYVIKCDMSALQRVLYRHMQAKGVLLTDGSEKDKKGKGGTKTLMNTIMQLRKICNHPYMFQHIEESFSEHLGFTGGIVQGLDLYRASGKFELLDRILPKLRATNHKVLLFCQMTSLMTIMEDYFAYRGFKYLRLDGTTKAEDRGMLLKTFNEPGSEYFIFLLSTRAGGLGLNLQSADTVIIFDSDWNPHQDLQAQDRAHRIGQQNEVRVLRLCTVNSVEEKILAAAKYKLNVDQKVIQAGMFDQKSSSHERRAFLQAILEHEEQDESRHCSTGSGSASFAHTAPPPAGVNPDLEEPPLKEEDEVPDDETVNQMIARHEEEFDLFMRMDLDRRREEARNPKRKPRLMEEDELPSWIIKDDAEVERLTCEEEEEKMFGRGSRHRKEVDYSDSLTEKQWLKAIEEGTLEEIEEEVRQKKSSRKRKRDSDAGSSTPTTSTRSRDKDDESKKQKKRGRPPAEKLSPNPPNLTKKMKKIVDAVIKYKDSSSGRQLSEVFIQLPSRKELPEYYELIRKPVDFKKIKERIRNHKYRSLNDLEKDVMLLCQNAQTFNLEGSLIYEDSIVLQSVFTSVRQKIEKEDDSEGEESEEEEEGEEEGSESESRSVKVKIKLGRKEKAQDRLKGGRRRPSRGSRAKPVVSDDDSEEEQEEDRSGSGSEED
T2 sequence (P51531 whole entry): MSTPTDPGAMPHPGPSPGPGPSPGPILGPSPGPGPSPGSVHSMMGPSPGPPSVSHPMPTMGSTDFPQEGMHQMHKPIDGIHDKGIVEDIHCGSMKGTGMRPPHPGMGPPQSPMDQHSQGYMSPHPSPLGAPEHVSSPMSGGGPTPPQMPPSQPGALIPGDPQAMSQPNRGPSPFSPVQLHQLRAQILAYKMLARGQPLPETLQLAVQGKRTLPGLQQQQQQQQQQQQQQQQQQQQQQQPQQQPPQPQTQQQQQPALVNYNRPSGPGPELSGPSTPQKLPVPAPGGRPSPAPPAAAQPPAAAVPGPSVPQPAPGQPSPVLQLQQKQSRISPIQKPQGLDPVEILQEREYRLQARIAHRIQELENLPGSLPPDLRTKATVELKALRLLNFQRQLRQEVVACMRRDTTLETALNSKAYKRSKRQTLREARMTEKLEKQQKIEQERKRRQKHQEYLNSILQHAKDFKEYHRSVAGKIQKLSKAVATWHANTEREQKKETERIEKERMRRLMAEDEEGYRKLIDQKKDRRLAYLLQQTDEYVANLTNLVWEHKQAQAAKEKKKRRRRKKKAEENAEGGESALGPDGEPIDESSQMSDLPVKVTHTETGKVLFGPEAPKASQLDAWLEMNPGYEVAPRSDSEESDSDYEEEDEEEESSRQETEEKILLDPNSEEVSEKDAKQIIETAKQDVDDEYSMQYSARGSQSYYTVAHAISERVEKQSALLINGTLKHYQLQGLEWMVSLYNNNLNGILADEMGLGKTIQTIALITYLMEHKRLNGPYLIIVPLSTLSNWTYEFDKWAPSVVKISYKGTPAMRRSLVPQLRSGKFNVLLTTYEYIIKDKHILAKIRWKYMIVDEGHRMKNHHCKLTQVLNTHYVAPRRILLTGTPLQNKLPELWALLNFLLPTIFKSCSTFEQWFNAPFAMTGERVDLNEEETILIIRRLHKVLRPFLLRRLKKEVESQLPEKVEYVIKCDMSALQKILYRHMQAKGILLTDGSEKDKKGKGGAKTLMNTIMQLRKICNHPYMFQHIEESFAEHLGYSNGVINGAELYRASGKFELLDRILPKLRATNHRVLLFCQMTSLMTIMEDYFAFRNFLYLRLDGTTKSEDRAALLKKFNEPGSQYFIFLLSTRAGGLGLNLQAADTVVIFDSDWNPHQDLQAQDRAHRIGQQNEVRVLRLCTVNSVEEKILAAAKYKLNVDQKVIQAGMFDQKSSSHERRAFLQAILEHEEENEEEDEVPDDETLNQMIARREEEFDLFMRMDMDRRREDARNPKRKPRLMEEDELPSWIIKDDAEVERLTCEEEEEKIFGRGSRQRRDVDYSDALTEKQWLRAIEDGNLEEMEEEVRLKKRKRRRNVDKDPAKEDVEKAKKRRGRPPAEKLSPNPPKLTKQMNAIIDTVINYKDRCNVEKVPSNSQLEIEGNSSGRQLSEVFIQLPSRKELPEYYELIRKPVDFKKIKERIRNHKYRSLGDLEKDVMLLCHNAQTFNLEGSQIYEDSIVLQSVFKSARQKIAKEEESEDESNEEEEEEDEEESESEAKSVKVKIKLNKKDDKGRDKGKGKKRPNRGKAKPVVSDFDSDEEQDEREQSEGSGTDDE

SMILES | IC50 (BRG-1) [nM] | Ratio (BRG1 IC50 (μM) divided by BRM IC50 (μM)) (BRM) | IC50 (BRM) [nM]
C[C@@H]1CN(c2cccc(-c3ccc4cnc(CNC(=O)c5cc(F)c6c(c5)S(=O)(=O)[C@H](F)C[C@H](C)O6)cc4n3)n2)C[C@H](C)O1 [Compound 34, (2S,4S)—N-((2-(6-((2S,6R)-2,6-dimethylmorpholino)pyridin-2-yl)-1,6-naphthyridin-7-yl)methyl)-4,9-difluoro-2-methyl-3,4-dihydro-2H-benzo[b][1,4]oxathiepine-7-carboxamide 5,5-dioxide] | 1470 | 12.17 | 120
O=C(NCc1cc2nc(N3CCOc4cc(C5(C(F)F)CC5)cnc43)ccc2cn1)c1cc(F)c2c(c1)S(=O)(=O)[C@@H](F)CCO2 [Compound 70] | 39.6 | 12.79 | 2.7
O=C(NCc1cc2nc(N3CCOc4ccc([C@H](F)CF)nc43)ccc2cn1)c1cc(F)c2c(c1)S(=O)(=O)[C@@H](F)COC2 [Compound 62] | 79.7 | 28.84 | 2.6
O=C(NCc1cc2nc(N3CCCc4c3ccnc4OC3CC3)ccc2cn1)c1cc(F)c2c(c1)S(=O)(=O)[C@@H](F)CCO2 [Compound 76] | 45.1 | 16.02 | 2.8
COc1cnc2c(c1)OCCN2c1ccc2cnc(CNC(=O)c3cc(F)c4c(c3)S(=O)(=O)[C@@H](F)CCO4)cc2n1 [Compound 71] | 48.3 | 17.64 | 2.7
Cc1cnc2c(c1)OCCN2c1ccc2cnc(CNC(=O)c3cc(F)c4c(c3)S(=O)(=O)[C@@H](F)CCO4)cc2n1 [Compound 51] | 42.1 | 18.72 | 2.5
O=C(NCc1cc2nc(N3CCOc4cc([C@@H]5CC5(F)F)cnc43)ccc2cn1)c1cc(F)c2c(c1)S(=O)(=O)[C@@H](F)CCO2 [Compound 87] | 78.3 | 20.66 | 3.2
COc1nc([C@H](F)CF)ccc1-c1ccc2cnc(CNC(=O)c3cc(F)c4c(c3)S(=O)(=O)[C@@H](F)COC4)cc2n1 [Compound 44] | 64.1 | 23.96 | 2.1
CCN(CC)c1cnc2c(c1)OCCN2c1ccc2cnc(CNC(=O)c3cc(F)c4c(c3)S(=O)(=O)[C@@H](F)COC4)cc2n1 [Compound 17] | 23.4 | 12.76 | 1.5
Cc1ccc(-c2ccc3cnc(CNC(=O)c4cc(F)c5c(c4)S(=O)(=O)[C@@H](F)COC5)cc3n2)c(OC(F)F)n1 [Compound 73] | 57.1 | 20.62 | 2.8
CC#Cc1ccc2c(n1)N(c1ccc3cnc(CNC(=O)c4cc(F)c5c(c4)S(=O)(=O)[C@@H](F)CCO5)cc3n1)CCO2 [Compound 37] | 31.9 | 15.93 | 2
[2H]C1([2H])Oc2c(F)cc(C(=O)NCc3cc4nc(-c5ccc(C(F)F)nc5OC)ccc4cn3)cc2S(=O)(=O)[C@@]([2H])(F)C1([2H])[2H] [Compound 84] | 95.7 | 25.97 | 3.1
CCOc1ccnc2c1OCCN2c1ccc2cnc(CNC(=O)c3cc(F)c4c(c3)S(=O)(=O)[C@@H](F)COC4)cc2n1 [Compound 11] | 14.2 | 9.50 | 1.4
[2H]C1([2H])OC([2H])([2H])[C@H](F)S(=O)(=O)c2cc(C(=O)NCc3cc4nc(N5CCOc6cc(C7CC7)cnc65)ccc4cn3)cc(F)c21 [Compound 3] | 25.2 | – | 0.8
C[C@@H]1CCN1c1cnc2c(c1)OCCN2c1ccc2cnc(CNC(=O)c3cc(F)c4c(c3)S(=O)(=O)[C@@H](F)CCO4)cc2n1 [Compound 47] | 54.3 | 16.31 | 2.3
O=C(NCc1cc2nc(N3CCOc4cc(N5CC(F)C5)cnc43)ccc2cn1)c1cc(F)c2c(c1)S(=O)(=O)[C@@H](F)COC2 [Compound 30] | 39.1 | 19.40 | 1.8
O=C(NCc1cc2nc(N3CCOc4ccc([C@H]5C[C@@H]5C(F)F)nc43)ccc2cn1)c1cc(F)c2c(c1)S(=O)(=O)[C@@H](F)COC2 [Compound 26] | 39.1 | 21.77 | 1.7
O=C(NCc1cc2nc(N3CCOc4cc(N5C[C@@H](F)[C@H](F)C5)cnc43)ccc2cn1)c1cc(F)c2c(c1)S(=O)(=O)[C@@H](F)COC2 [Compound 50] | 38.7 | 15.78 | 2.5

Next, values leading:

IC50 (BRG-1) [nM] | Ratio (BRG1 IC50 (μM) divided by BRM IC50 (μM)) (BRM) | IC50 (BRM) [nM] | SMILES
79.5 | 15.00 | 5.3 | O=C(NCc1cc2nc(N3CCCc4cc(N5C[C@@H](F)[C@H](F)C5)cnc43)ccc2cn1)c1cc(F)c2c(c1)S(=O)(=O)[C@@H](F)CCO2 [Compound 168]
196 | 20.51 | 9.6 | O=C(NCc1cc2nc(N3CCOc4cc(N5CCC[C@H](F)C5)cnc43)ccc2cn1)c1cc(F)c2c(c1)S(=O)(=O)[C@@H](F)CCO2 [Compound 286]
89.1 | 16.27 | 5.5 | [2H]C1([2H])Oc2c(F)cc(C(=O)NCc3cc4nc(N5CCOc6cc(N7CC(F)C7)cnc65)ccc4cn3)cc2S(=O)(=O)[C@@]([2H])(F)C1([2H])[2H] [Compound 171]
119 | 21.42 | 4.9 | COc1nc(C(C)(F)F)ccc1-c1ccc2cnc(CNC(=O)c3cc(F)c4c(c3)S(=O)(=O)[C@@H](F)CCO4)cc2n1 [Compound 150]
125 | 15.85 | 6.1 | COc1nc([C@@H](F)CF)ccc1-c1ccc2cnc(CNC(=O)c3cc(F)c4c(c3)S(=O)(=O)[C@@H](F)CCO4)cc2n1 [Compound 202]
67.7 | 13.78 | 4.9 | COCCN(C)c1cnc2c(c1)CCCN2c1ccc2cnc(CNC(=O)c3cc(F)c4c(c3)S(=O)(=O)[C@@H](F)CCO4)cc2n1 [Compound 149]
207 | 34.29 | 5.6 | O=C(NCc1cc2nc(N3CCCc4sc(C5CC5)nc43)ccc2cn1)c1cc(F)c2c(c1)S(=O)(=O)[C@@H](F)CCO2 [Compound 178]
221 | 17.63 | 11.3 | C[C@H]1OC[C@H](F)S(=O)(=O)c2cc(C(=O)NCc3cc4nc(N5CCOc6cc(C7CC7)cnc65)ccc4cn3)ccc21 [Compound 162]
97 | 23.13 | 5 | O=C(NCc1cc2nc(N3CCOc4ccc([C@@H]5C[C@H]5F)nc43)ccc2cn1)c1cc(F)c2c(c1)S(=O)(=O)[C@@H](F)CCO2 [Compound 156]
57.2 | 14.50 | 3.9 | O=C(NCc1cc2nc(N3CCOc4cc(N5CC[C@H](F)[C@@H](F)C5)cnc43)ccc2cn1)c1cc(Cl)c2c(c1)S(=O)(=O)[C@@H](F)COC2 [Compound 112]
108 | 10.70 | 10.1 | O=C(NCc1cc2cc(N3CCOc4cc(C(F)F)cnc43)ccc2cn1)c1cc(F)c2c(c1)S(=O)(=O)[C@@H](F)CCO2 [Compound 303]
96.8 | 18.45 | 5.1 | CC(C)c1cnc2c(c1)OCCN2c1ccc2cnc(CNC(=O)c3cc(F)c4c(c3)S(=O)(=O)[C@@H](F)CCO4)cc2n1 [Compound 157]
79.1 | 19.81 | 3.9 | O=C(NCc1cc2nc(-c3cccc(N4CCC4)n3)ccc2cn1)c1cc(F)c2c(c1)S(=O)(=O)[C@@H](F)COC2 [Compound 111]
103 | 17.01 | 6 | C[C@H](F)c1cnc2c(c1)OCCN2c1ccc2cnc(CNC(=O)c3cc(F)c4c(c3)S(=O)(=O)[C@@H](F)CCO4)cc2n1 [Compound 198]
164 | 18.19 | 9.2 | O=C(NCc1cc2nc(N3CCOc4ccc([C@H](F)CF)nc43)ccc2cn1)c1cc(F)c2c(c1)S(=O)(=O)[C@@H](F)CCO2 [Compound 279]
46.7 | 14.38 | 3.2 | CCOc1cc(C(F)F)nc2c1OCCN2c1ccc2cnc(CNC(=O)c3cc(F)c4c(c3)S(=O)(=O)[C@@H](F)CCO4)cc2n1 [Compound 91]
3840 | 38.53 | 99.8 | O=C(NCc1cc2cc(-c3cccc(OC(F)F)n3)ccc2nn1)c1cc(Cl)c2c(c1)S(=O)(=O)[C@@H](F)COC2 [Compound 196]
89.1 | 19.04 | 4.7 | C[C@H]1[C@H](F)CN1c1cnc2c(c1)OCCN2c1ccc2cnc(CNC(=O)c3cc(F)c4c(c3)S(=O)(=O)[C@@H](F)CCO4)cc2n1 [Compound 142]
